Data set [1] deals with Wnt-responsive promoter (TCF/LEF). In words: Wnt-dependent luciferase reporter assay. The data set is classed as cell-based, murine. The gist of the method: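 EC50 (uM) derived from inhibition of luminescence in Wnt3a-stimulated murine 3T3 cells expressing luciferase under a TCF/LEF promoter, with peptides added across a concentration range and vehicle as control.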
Background: In a reporter assay the amount or activity of a reporter protein is the signal.

Another data set deals with T1, β-catenin (Homo sapiens, UniProt P35222).
T1 sequence (P35222 1-781): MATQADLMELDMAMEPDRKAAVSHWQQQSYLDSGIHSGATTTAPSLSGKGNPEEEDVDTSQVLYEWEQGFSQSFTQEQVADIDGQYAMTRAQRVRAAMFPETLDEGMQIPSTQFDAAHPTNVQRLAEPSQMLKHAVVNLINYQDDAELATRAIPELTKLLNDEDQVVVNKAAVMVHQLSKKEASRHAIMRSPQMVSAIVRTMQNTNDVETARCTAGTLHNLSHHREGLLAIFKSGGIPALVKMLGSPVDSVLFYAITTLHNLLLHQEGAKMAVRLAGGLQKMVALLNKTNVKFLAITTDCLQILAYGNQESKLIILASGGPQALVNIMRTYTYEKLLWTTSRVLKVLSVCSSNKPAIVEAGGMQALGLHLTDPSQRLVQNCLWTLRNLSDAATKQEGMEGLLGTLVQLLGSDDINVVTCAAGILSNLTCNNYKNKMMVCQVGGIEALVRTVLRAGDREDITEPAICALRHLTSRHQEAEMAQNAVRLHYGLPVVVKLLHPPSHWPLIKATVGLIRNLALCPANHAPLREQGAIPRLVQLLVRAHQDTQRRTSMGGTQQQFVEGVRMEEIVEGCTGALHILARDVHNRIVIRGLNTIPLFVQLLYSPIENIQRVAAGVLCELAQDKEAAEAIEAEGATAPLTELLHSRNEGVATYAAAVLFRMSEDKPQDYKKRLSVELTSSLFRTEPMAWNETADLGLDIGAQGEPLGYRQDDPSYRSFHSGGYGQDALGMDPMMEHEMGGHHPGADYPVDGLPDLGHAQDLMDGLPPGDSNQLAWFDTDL
Kind of data set: KD50 measurement using competitive fluorescence polarization (FP) with labelled TCF4. The data set is classed as binding. Particulars: fluorescence polarization, β-catenin; for Kd: read-out: β-Cat FP KD. Put shortly:
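Each compound competes against labelled TCF4 (5 nM) for 100 nM β-catenin at room temperature, tested over 10 nM to 30 uM. Signal: polarization at 470/520 nm excitation/emission. Three repeat experiments were performed.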

The conditions of data set [2]: % Viability non-Wnt responsive cells.

This note sets out measurements from US12441768B2, “Compositions and methods for treating endometriosis” (EndoMet Biosciences, Inc., priority 2018, dated 2025).

Where a SMILES comes first, the peptide text is derived from it.

The term EC50 denotes the midpoint of the concentration-response curve. Low readings indicate a more potent agent, high ones a less potent agent. Usually Kd stands for the free concentration of one partner at which half of the binding sites on the other are occupied at equilibrium, for simple one-to-one binding. By viability is commonly meant a read-out of living cells in per cent, often relative to untreated cells.

In turn, `CC[C@H](C)[C@H](NC(=O)[C@H](CC(C)C)NC(=O)[C@H](Cc1ccccc1)NC(=O)[C@H](Cc1c[nH]c2ccccc12)NC(=O)[C@@H](N)CCSC)C(=O)N[C@@H](CO)C(=O)N[C@@H](Cc1ccccc1)C(=O)N[C@@H](Cc1c[nH]c2ccccc12)C(N)=O` [compound 107] (H-MWFLISFW-NH2) yielded an EC50 in data set [1] of 7.5 to 15 µM. At β-catenin, the “β-Cat FP Hill slope” value is 0.7 and the Kd was in the range of 1 to 10 µM. Also, in data set [2], the viability amounted to 100%.

For the compound `CC[C@H](C)[C@H](NC(=O)[C@H](Cc1c[nH]c2ccccc12)NC(=O)[C@@H](N)CCSC)C(=O)NC(C)(CC(C)C)C(=O)N[C@H](C(=O)N[C@@H](CS)C(=O)N[C@@H](Cc1ccccc1)C(=O)N[C@@H](Cc1c[nH]c2ccccc12)C(=O)NCC(=O)O)[C@@H](C)CC` (stereo partly shown) [compound 130] (HELM PEPTIDE1{M.W.I.[CC(C)CC(C)(N[*:1])C(=O)[*:2]].I.C.F.W.G}$$$$V2.0), the concentration giving a half-maximal response (EC50) in data set [1] is 22.5 to 30 µM. On β-catenin, the “β-Cat FP Hill slope” value amounted to 0.72 and the Kd was 1 to 10 µM. Moreover, the viability in data set [2] worked out at 98.3%.

In turn, `CC[C@H](C)[C@H](NC(=O)[C@H](CC(C)C)NC(=O)[C@H](Cc1ccccc1)NC(=O)[C@H](Cc1c[nH]c2ccccc12)NC(=O)[C@H](Cc1c[nH]c2ccccc12)NC(=O)[C@H](CCCNC(=N)N)NC(=O)[C@H](CO)NC(=O)[C@@H](N)CCSC)C(=O)N[C@@H](CO)C(=O)N[C@@H](Cc1ccccc1)C(=O)N[C@@H](Cc1c[nH]c2ccccc12)C(N)=O` [compound 78] (H-MSRWWFLISFW-NH2) returned an EC50 in data set [1] greater than 30 µM. Besides, the Kd at β-catenin was greater than 30 µM. Moreover, the viability in data set [2] worked out at 101%.

In data set [1], `CC[C@H](C)[C@H](NC(=O)[C@H](CC(C)C)NC(=O)[C@H](Cc1ccccc1)NC(=O)[C@H](Cc1c[nH]c2ccccc12)NC(=O)[C@@H](N)CCSC)C(=O)N[C@@H](CS)C(=O)N[C@@H](C)C(=O)N[C@@H](Cc1c[nH]c2ccccc12)C(=O)NCC(=O)O` [compound 211] (H-MWFLICAWG-OH) gave an EC50 of less than 7.5 µM. Further, at β-catenin, the “β-Cat FP Hill slope” value is on record as 0.67 and the Kd was in the range of 1 to 10 µM. For the same compound, the viability in data set [2] turned out to be 93.9%.

Consider `CC[C@H](C)[C@@H]1NC(=O)[C@H](CC(C)C)NC(=O)[C@H]([C@@H](C)CC)NC(=O)[C@H](Cc2c[nH]c3ccccc23)NC(=O)[C@@H](N)CCCCNC(=O)C[C@@H](C(=O)O)NC(=O)[C@H](Cc2c[nH]c3ccccc23)NC(=O)[C@H](Cc2ccccc2)NC(=O)[C@H](CS)NC1=O` [compound 120] (HELM PEPTIDE1{K.W.I.L.I.C.F.W.D}$PEPTIDE1,PEPTIDE1,1:R3-9:R3$$$V2.0), for which, in data set [1], the EC50 is less than 7.5 µM. Besides, the Kd at β-catenin was greater than 30 µM. In data set [2], the viability amounted to 123%.

On to `CC[C@H](C)[C@@H]1NC(=O)[C@H](CC(C)C)NC(=O)[C@H](Cc2ccccc2)NC(=O)[C@H](Cc2c[nH]c3ccccc23)NC(=O)[C@@H](N)CCCCNC(=O)C[C@@H](C(=O)O)NC(=O)[C@H](Cc2c[nH]c3ccccc23)NC(=O)[C@H](C)NC(=O)[C@H](CO)NC1=O` [compound 202] (HELM PEPTIDE1{K.W.F.L.I.S.A.W.D}$PEPTIDE1,PEPTIDE1,1:R3-9:R3$$$V2.0), for which the concentration for a half-maximal effect (EC50) in data set [1] is 22.5 to 30 µM. Moreover, the Kd at β-catenin is greater than 30 µM. For the same compound, the viability in data set [2] was determined as 92.1%.

In data set [1], `CCOC[C@H](NC(=O)[C@H](CO)NC(=O)[C@@H](NC(=O)[C@H](CC(C)C)NC(=O)[C@H](Cc1ccccc1)NC(=O)[C@@H](N)Cc1c[nH]c2ccccc12)[C@@H](C)CC)C(=O)N[C@@H](Cc1c[nH]c2ccccc12)C(=O)O` [compound 104] (H-WFLISS(Et)W-OH) gave an EC50 of 7.5 to 15 µM. In addition, on β-catenin, the “β-Cat FP Hill slope” value is recorded as 3 and the Kd was in the range of 1 to 10 µM. Moreover, in data set [2], the viability was determined as 104%.
